19 compounds from the Kinase Knowledgebase extract (Sharma et al. 2016) can be followed below.

Molecules are shown by their SMILES. pIC50: −log10 of the molar value. A value given as a limit tells only on which side of the number the result lay.

In this assay the target is PIK3CA (human) (UniProt P42336). Nature of the assay: Cell-Based Assay. The conditions noted are these: bt474.
Sequence of PIK3CA (human) (P42336 whole entry, looked up): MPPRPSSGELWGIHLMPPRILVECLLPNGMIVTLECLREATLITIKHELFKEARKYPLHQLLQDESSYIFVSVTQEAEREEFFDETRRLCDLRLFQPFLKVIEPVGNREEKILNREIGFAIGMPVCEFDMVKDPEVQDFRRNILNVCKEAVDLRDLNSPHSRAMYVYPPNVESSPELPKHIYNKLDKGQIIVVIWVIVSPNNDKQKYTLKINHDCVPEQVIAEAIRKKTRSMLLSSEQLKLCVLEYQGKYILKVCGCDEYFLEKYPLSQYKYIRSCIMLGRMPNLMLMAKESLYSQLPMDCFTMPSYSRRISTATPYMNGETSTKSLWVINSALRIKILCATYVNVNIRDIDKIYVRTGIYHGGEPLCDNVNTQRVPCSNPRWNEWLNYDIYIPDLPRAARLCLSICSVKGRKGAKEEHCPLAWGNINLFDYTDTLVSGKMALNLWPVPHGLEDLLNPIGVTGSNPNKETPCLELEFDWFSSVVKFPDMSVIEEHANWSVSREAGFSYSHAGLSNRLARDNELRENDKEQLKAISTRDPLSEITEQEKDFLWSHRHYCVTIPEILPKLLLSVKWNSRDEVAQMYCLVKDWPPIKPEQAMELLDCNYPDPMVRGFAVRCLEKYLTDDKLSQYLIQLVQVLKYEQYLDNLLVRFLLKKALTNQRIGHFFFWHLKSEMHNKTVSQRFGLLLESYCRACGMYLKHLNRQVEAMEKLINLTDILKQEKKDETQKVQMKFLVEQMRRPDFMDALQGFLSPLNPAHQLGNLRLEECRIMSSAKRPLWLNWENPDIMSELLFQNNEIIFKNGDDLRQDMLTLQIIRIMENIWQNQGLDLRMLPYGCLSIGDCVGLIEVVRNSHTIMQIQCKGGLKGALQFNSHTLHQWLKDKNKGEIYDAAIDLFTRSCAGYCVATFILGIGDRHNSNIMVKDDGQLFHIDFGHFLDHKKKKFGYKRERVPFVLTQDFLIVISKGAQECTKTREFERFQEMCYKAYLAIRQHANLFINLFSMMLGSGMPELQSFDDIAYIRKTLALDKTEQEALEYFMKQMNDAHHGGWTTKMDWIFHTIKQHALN
As for `Cn1c(=O)n([C@H]2CCCOC2)c2c3cc(-c4ccc(OCCCN5CCC5)nc4)ccc3ncc21`, the pIC50 was 6.30.
On to `Cn1c(=O)n([C@H]2CCCOC2)c2c3cc(-c4ccc(OCCCN5CCCCC5)nc4)ccc3ncc21`, for which the pIC50 was less than 4.96.
Compound `CN(C)CCCOc1ccc(-c2cc3c(cc2F)ncc2c3n([C@H]3CCCOC3)c(=O)n2C)cn1` had a pIC50 of less than 4.69.
`Cn1c(=O)n(C2CCC2)c2c3cc(-c4ccc(OCCCN5CCCCC5)nc4)ccc3ncc21`: the pIC50 is less than 4.84.
The compound `CN(C)CCCOc1ccc(-c2ccc3ncc4c(c3c2)n([C@H]2C[C@@H](O)C2)c(=O)n4C)cn1` gave a pIC50 of 5.97.
With `Cn1c(=O)n([C@H]2CCCOC2)c2c3cc(-c4ccc(OCCCN5CCCCC5)nc4)c(F)cc3ncc21`, the pIC50 was less than 4.63.
With `CN(C)CCCOc1ccc(-c2ccc3ncc4c(c3c2)n(C2COC2)c(=O)n4C)cn1`, the pIC50 is 5.16.
On to `Cn1c(=O)n(C2CCC2)c2c3cc(-c4ccc(OCCCN5CCCC5)nc4)ccc3ncc21`, for which the pIC50 was less than 5.02.
`O=c1[nH]c2cnc3ccc(-c4ccc(OCCCN5CCCCC5)nc4)cc3c2n1C1CCOCC1` had a pIC50 of less than 4.60.
In the case of `CN(C)CCCOc1ccc(-c2cc3c(cc2F)ncc2c3n([C@H]3CCCOC3)c(=O)n2C)c(F)n1`, the pIC50 was less than 5.03.
Consider `CN(C)CCCOc1ccc(-c2cc3c(cc2F)ncc2c3n(C3COC3)c(=O)n2C)cn1`, for which the pIC50 is less than 4.54.
The figure for `CO[C@H]1C[C@@H](n2c(=O)n(C)c3cnc4cc(F)c(-c5ccc(OCCCN(C)C)nc5)cc4c32)C1` is less than 4.52; for `CN(C)CCCOc1ccc(-c2cc3c(cc2F)ncc2c3n([C@@H]3CCCOC3)c(=O)n2C)cn1` it is 5.00; for `Cn1c(=O)n(C2CCOCC2)c2c3cc(-c4ccc(OCCCN5CCCCC5)nc4)c(F)cc3ncc21` it is less than 4.78.
Consider `CO[C@H]1C[C@@H](n2c(=O)n(C)c3cnc4cc(F)c(-c5ccc(OCCCN(C)C)nc5F)cc4c32)C1`, for which the pIC50 is less than 4.55.
`Cn1c(=O)n([C@H]2CCCOC2)c2c3cc(-c4ccc(OCCCN5CCCC5)nc4F)ccc3ncc21` gave a pIC50 of less than 4.79.
In the case of `Cn1c(=O)n([C@H]2CCCOC2)c2c3cc(-c4ccc(OCCCN5CCCC5)nc4)c(F)cc3ncc21`, the pIC50 is less than 4.52.
Take `Cn1c(=O)n(C2COC2)c2c3cc(-c4ccc(OCCCN5CCCCC5)nc4)ccc3ncc21`: the pIC50 is less than 4.58.
`CO[C@H]1C[C@@H](n2c(=O)n(C)c3cnc4cc(F)c(-c5ccc(OCCCN6CCCC6)nc5)cc4c32)C1` showed a pIC50 of less than 4.53.
